In patent EP4545076A1, “LAT1 SELECTIVE INHIBITORS FOR USE IN THE TREATMENT OF ADVERSE VENTRICULAR -REMODELLING AND OF HEART FAILURE” (Fundació Hospital Universitari Vall d'Hebron - Institut de …, priority 2023, dated 2025):

What was measured:
Type in all cases: in vivo, C57BL/6N mice
[1] = test system: heart failure induced by aortic stenosis; test: Ventricular dilatation, cardiac function (echocardiography) and pulmonary oedema in TAC mouse model; settings: after 5 weeks of TAC surgery, 12.5 mg/kg/day ip, vs control group
Experimental: (§1) Twelve weeks C57BL/6N old mice were anesthetised with ketamine/xylazine (100 mg/kg and 10 mg/kg, respectively) and mechanically ventilated (SAR-830/AP, CWE). The transverse aortic arch was ligated by tying a 6-0 silk suture around the aorta and a 27G needle to yield a partial and reproducible constriction when the needle was removed. In sham animals, the aortic arch was visualized but not banded. Thorax was closed and analgesia was administrated (buprenorphine at 0.1 mg/kg every 12 hours until 48 hours). Mice were euthanized by lethal intraperitoneal dose of sodium pentobarbital (100 mg/kg) (Cat. No. 4579, Tocris).
(§2) The LAT1 inhibitor JPH203 (Cat. No. S8667) was intraperitoneally (ip) and chronically administered, starting the following day after TAC surgery.
(§3) Mice were randomly distributed to receive JPH203 at 12.5 mg/kg/day (prepared at 2 mg/ml of 40% 2-hydroxipropil-beta-cyclodextrin in saline). Sham and control groups received JPH203 vehicle (40% 2-hydroxipropil-beta-cyclodextrin in saline). Mice were euthanized 2 or 5 weeks after surgery.
(§4) Mice underwent transthoracic echocardiography at baseline (before surgery) and at 1, 2 and 5 weeks after surgery. Echocardiography was performed using a Prospect T1 Preclinical High Frequency Ultrasound System with a PB406e Probe 40MHz transducer (S-Sharp) applied to the shaved chest wall of mice anesthetized with isoflurane. The ejection fraction (EF), the left ventricular end-systolic (LVESd) and diastolic (LVEDd) internal diameters, left ventricular anterior wall (LVAW) thickness and left ventricular posterior wall (LVPW) thickness were measured in M-mode recordings.

interstitial collagen = test: Cardiac fibrosis in Transverse Aortic Constriction (TAC) mouse model; settings: 12.5 mg/kg/day ip
Experimental: as §1, §2, §3
Hearts were fixed in buffered 4% paraformaldehyde and embedded in paraffin for histological evaluation. The amount of interstitial collagen deposition was determined in 4 µm transverse sections at the papillary muscles level stained with Picrosirius red (Sigma-Aldrich). At least ten random photomicrographs per animal were taken with the Leica DM IRBE Inverted Fluorescence Microscope at x200 magnification. The analysis was performed using Image J 1.50 Software. Interstitial fibrosis was expressed as the percentage of fibrotic area with respect to total area under quantification, perivascular fibrosis was manually excluded from the analysis.

heart hypertrophy = test: Cardiac hypertrophy in Transverse Aortic Constriction (TAC) mouse model; settings: 12.5 mg/kg/day ip, vs control group
Experimental: as §1, §2, §3, §4
Hypertrophy was calculated as heart weight-to-tibia length ratio. Echocardiographic parameters like IVS and LVPW thicknesses, as well as BNP and Myh7 mRNA levels, are the common parameters used to define myocardial hypertrophy.

myocardial BCAA content = test: LC-MS/MS of BCAA and leucine metabolites in heart extracts of TAC mice
Experimental: as §1, §2, §3
After 5 hours of fasting, mice were injected with an intraperitoneal dose of L-Leucine-^13C6, ^15N (Cat. No. 608068, Sigma-Aldrich) at 0.1 mg/g 30 minutes before euthanizing with a lethal injection of sodium pentobarbital resuspended in saline and injected at 100 mg/kg (Cat. No. 4579, Tocris).
The levels of Branched-Chain Amino Acids (BCAA) and their main metabolites in biological samples will be determined by Liquid Chromatography tandem Mass Spectrometry (LC-MS/MS). Briefly, the determination of amino acids (BCAA but also amino acids involved in glutaminolysis) was performed by using a hydrophilic interaction chromatography (HILIC) with an amide column. After addition of the adequate internal standard (containing labelled analogues), protein precipitation with organic solvents and centrifugation, the supernatant was injected into the LC-MS/MS system operating in a Selected Reaction Monitoring (SRM) method by acquiring two transitions for each compound. The determination of α-ketoacids, α-hydroxy acids and SCFA (including the main BCAA metabolites and other compounds related with glutaminolysis) was performed by oBHA derivatization. The internal standard (containing labelled analogues) was added into the sample and the mixture was derivatized by adding a derivatizing mixture consisting in oBHA:EDC (1:1) in pyridine. After reaction for 1 h at room temperature, 1 mL of milliQ water and 4 mL of ethyl acetate was added to perform a liquid-liquid extraction. […] Quantification was performed by means of external calibration using authentic referent material. […] Several quality control samples (QCs) were analysed with every analytical batch with the aim of checking the inter-batch robustness of the results. […]

[2] = test system: genes involved in BCAA catabolism; test: BCAA catabolism gene expression (microarray, RT-PCR) in hearts of TAC mice; settings: 12.5 mg/kg/day ip
Experimental: as §1, §2, §3
Total RNA was extracted from heart samples using the NZY Total RNA Isolation kit (Cat. No. MB13402, NZY Tech) following the manufacturer's protocol.
RNA was reverse transcribed into cDNA using a High-Capacity cDNA Reverse Transcription kit (Cat. No. 4368814, Applied Biosystems) following manufacturer's instructions. The thermal cycler (Bio-Rad) was programmed to run a single cycle of 25 °C for 10 min, 37 °C for 120 min, 85 °C for 5 min and kept at 4 °C until use.
For determination of differential gene expression, RNA was isolated, as previously described, from mice myocardial samples and its quality was analysed by capillary electrophoresis (Bioanalyzer 2100, Agilent) and amplified using the WT Plus Reagent Kit-HT (Applied Biosystems, Thermo Fisher Scientific). Microarray service was done by the Molecular Diagnosis and Genomic platforms of the High Technology Unit (VHIR) using Clariom S type arrays specific for mouse transcriptome (plate format) (Applied Biosystems). […]

[3] = 13C,15N-leucine ip 30 minutes before heart extraction, 2 weeks of TAC, 12.5 mg/kg/day ip

Compound: Nc1cc(COc2c(Cl)cc(C[C@H](N)C(=O)O)cc2Cl)c2oc(-c3ccccc3)nc2c1 [JPH203, O-[(5-amino-2-phenyl-1,3-benzoxazol-7-yl)methyl]-3,5-dichloro-L-tyrosine]
- attenuation of the development of pulmonary oedema (water content in lungs) ([1]; P<0.001): 56%
- attenuation of cardiac dysfunction (reduction in ejection fraction) ([1]; P=0.030): 38%
- reduction of the diastolic volume (LVEDV) ([1]; echocardiography, P=0.017): 60%
- reduction of the systolic volume (LVESV) ([1]; echocardiography, P=0.021): 51%
- reduced interstitial collagen deposition (interstitial collagen; Picrosirius Red stained heart sections, P<0.001): 57%
- attenuation in the expression of collagen III (interstitial collagen; RT-PCR, myocardial homogenates after two weeks of TAC surgery, P=0.002): 58%
- attenuation in the expression of collagen I (interstitial collagen; RT-PCR, myocardial homogenates after two weeks of TAC surgery, P=0.003): 56%
- attenuation of the increase in HW/TL ratio (heart hypertrophy; 5 weeks of aortic stenosis, P<0.001): 33%
- attenuation of the increase in MyH7/MyH6 ratio (heart hypertrophy; RT-PCR, P<0.001): 44%
- attenuation of the increase in BNP expression (heart hypertrophy; RT-PCR, P=0.001): 65%
- reduction of posterior wall thickness (heart hypertrophy; echocardiography, diastole, P=0.006): 28%
- reduction of anterior wall thickness (heart hypertrophy; echocardiography, diastole, P=0.026): 30%
- increase in the ratio between the plasma and myocardial content of 13C6,15N-leucine (leucine uptake) (myocardial BCAA content; [3]): prevented these alterations
- reduction in the levels of the 13C6,15N-leucine metabolite 13C-HMG (myocardial BCAA content; [3]): prevented these alterations
- reduction in the levels of the 13C6,15N-leucine metabolite 13C-isovaleric acid (myocardial BCAA content; [3]): prevented these alterations
- increase in the myocardial content of BCAA (valine, leucine and isoleucine) (myocardial BCAA content; LC-MS/MS, heart extracts after 2 weeks of TAC surgery, chronic administration 12.5 mg/kg/day ip): significantly attenuated
- reduction in the expression of PP1MK ([2]; RT-PCR, hearts, vs control hearts, P=0.013): significantly attenuated
- reduction in the expression of BCKDHB ([2]; RT-PCR, hearts, vs control hearts, P=0.015): significantly attenuated
- downregulation of genes involved in BCAA catabolism induced by TAC surgery ([2]; microarray, myocardial samples, JPH203 treated vs sham mice): attenuates the downregulation
